Experimental findings from patent US5478726A, “Mycobacterial recombinants and peptides” (priority 1992, dated 1995) are described below.

The test system of data set [1] is T cell clone A7JM. The conditions noted are these: A7JM against macrophages pulsed with the antigen; 7 days.
For data set [2], the system named is T cell clone K8AH. The conditions noted are these: K8AH against macrophages pulsed with the antigen; 7 days.
Data set [3] deals with serum from human patients known to be infected with M. tuberculosis. In kind it is binding. The conditions noted are these: Western blot; preliminary studies. In general terms: A western blot detects proteins with antibodies after separation by electrophoresis.

As to `CC[C@H](C)[C@H](NC(=O)[C@H](Cc1ccc(O)cc1)NC(=O)[C@@H]1CCCN1C(=O)[C@H](CC(=O)O)NC(=O)[C@H](CCC(=O)O)NC(=O)[C@H](CC(C)C)NC(=O)[C@@H](NC(=O)[C@H](C)N)C(C)C)C(=O)N[C@@H](CC(C)C)C(=O)N[C@@H](CC(C)C)C(=O)N[C@H](C(=O)N[C@@H](CO)C(=O)N[C@@H](CO)C(=O)N[C@@H](CCCCN)C(=O)N[C@H](C(=O)O)C(C)C)C(C)C` [Peptide 22, A V L E D P Y I L L V S S K V], the Cytotoxicity in data set [1] was 82.7 ± 10 percentages.

Compound `CC[C@H](C)[C@H](NC(=O)[C@@H](NC(=O)[C@H](CCCCN)NC(=O)[C@H](CCC(=O)O)NC(=O)[C@H](CC(C)C)NC(=O)[C@H](CC(C)C)NC(=O)[C@@H]1CCCN1C(=O)[C@H](CC(C)C)NC(=O)[C@@H](N)CC(C)C)C(C)C)C(=O)NCC(=O)N[C@@H](C)C(=O)NCC(=O)N[C@@H](CCCCN)C(=O)N1CCC[C@H]1C(=O)N[C@@H](CC(C)C)C(=O)O` [Peptide 24, L L P L L E K V I G A G K P L] showed a Cytotoxicity in data set [2] of 86.5 ± 0.6 percentages.

Regarding “purified recombinant 65KD protein: purified recombinant 65KD (540 amino acid residue) protein of M. tuberculosis”, in data set [3], the “Immunoreaction with antisera from infected patients” value is on record as “immunoreacted”.
